Reference: a melting point compilation (Tetko et al.; mined from patent text by program, amines drawn as free bases though some values may be those of a salt)

With `Fc1cccc(Cl)c1COc1cccnc1NC(=S)Nc1ccc(Cl)cc1` the melting point was 162 to 164 °C. `Clc1ccc(N2CCN(CCCc3c4c(nn3-c3ccccn3)CCCC4)CC2)cc1` showed a melting point of 101 to 103 °C. With `COc1cccc2[nH]c3c(c12)C(=O)N=NC3=O` the melting point was > 260 °C. In the case of `CC(=O)OCc1cc([N+](=O)[O-])ccc1N1C(=O)c2ccc(Cl)cc2C1=O`, the melting point is reported as 124 to 125 °C. `O=C(CCl)NN1CCOC(c2ccccc2)(c2ccccc2)CC1` gave a melting point of 150 to 152 °C. With `Cc1c(NC(=O)c2ccc(OC[C@@H]3CCCO3)cc2)ccc2cc(CNCC(C)C)cnc12` the melting point was 142 to 143 °C. In the case of `C[C@@H](F)c1nc(N)nc(N[C@H]2c3ccccc3C[C@@H]2C)n1`, the melting point is reported as 146 to 150 °C. Work on `O=C1NCC[C@H](c2ccc(C(F)(F)F)cc2)[C@@H]1c1ccccc1` (relative stereo) yielded a melting point of 155 to 156 °C. For `CCOCc1cc2ccc(OCc3ccccc3)cc2oc1=O`, the melting point was 122 to 124 °C. `Cc1oc(-c2ccccc2)nc1COc1ccc(COc2nn(C)cc2CC(=O)O)cn1` gave a melting point of 139 to 140 °C. Molecule `COC(=O)Cn1cnc2c(OCc3ccccc3)ncnc21` has a melting point of 112 to 115 °C. `C=CCN(CC=C)Cc1nc(-c2ncn3c2[C@@H]2CCN2C(=O)c2cc(F)ccc2-3)no1` gave a melting point of 100 to 105 °C. For `CCOc1ccc(Cn2cnc3c(-c4ccco4)ncnc32)cc1`, the melting point was 165 to 166 °C. For `O=c1ccc(S(=O)(=O)c2cc3ccc(Cl)cc3[nH]2)n[nH]1`, the melting point was > 250 °C. In the case of `O=c1cc(NCCNCCOc2cccc3c2OCCO3)cn[nH]1`, the melting point is reported as 81 to 83 °C. In the case of `CCn1nc2c(N)nc3ccccc3c2c1CC1(O)CCN(C(C)=O)CC1`, the melting point is reported as 231 to 232 °C. Work on `CC(C)(C)OC(=O)N1C2CCC1CNC2` yielded a melting point of 102 to 104 °C. With `CCN(CC)c1ccc2cc(C=CC(=O)c3c(N(CC)CC)c4ccccc4oc3=O)oc2c1` the melting point was 169 to 171 °C. Molecule `CC(C)CCOc1cc(C(=O)O)cc([N+](=O)[O-])c1` has a melting point of 142 °C. Work on `ON=Cc1c(-c2ccccc2Cl)ccc2c1OCO2` yielded a melting point of 182 to 183 °C. `CCc1cc2ccccn2c1` gave a melting point of 42 to 44 °C. With `O[C@@H]([C@H](O)[C@@H](COc1ccccc1)OCc1ccccc1)[C@@H](COc1ccccc1)OCc1ccccc1` the melting point was 80 °C. In the case of `COC(=O)Cc1ccc(C2=CC(=O)c3ccccc3C2=O)n1C`, the melting point is reported as 89 to 90 °C. In the case of `Cc1cccc(OC2CCOC2=O)c1[N+](=O)[O-]` (stereo not drawn), the melting point is reported as 82 to 84 °C. For `COc1cc(C(C)=O)ccc1OCCCCN1CCC(c2n[nH]c3ccccc23)CC1`, the melting point was 133 to 135 °C. In the case of `O=C(O)Cc1ccc(Cl)cc1OCCc1ccccc1`, the melting point is reported as 102 to 104 °C. For `CC(C)(C)C(=O)Nc1ccc(C(F)(F)F)cc1`, the melting point was 154 to 158 °C. In the case of `NCCNc1ncc2ncnc(Nc3ccc(F)c(Cl)c3)c2n1`, the melting point is reported as 173 to 175 °C. For `Brc1ccc2c(c1)N=C(N1CCOCC1)c1cccc3c1N2CC3`, the melting point was 216 to 218 °C. For `O=c1oc2c(OCc3nnn[nH]3)c(O)c(OCc3nnn[nH]3)c(O)c2c2c1CCCC2`, the melting point was 283 to 286 °C. Work on `CC(=O)OCCOC(=O)C1=C(C)NC(C)=C(C(=O)CS(=O)(=O)NC(C)C)C1c1cccc([N+](=O)[O-])c1` (stereo not drawn) yielded a melting point of 133 to 136 °C. `Nc1ccc(S(=O)(=O)Nc2nnc(CO)s2)cc1` gave a melting point of 89 to 90 °C. In the case of `O=C(NCc1ccc(F)cc1)c1ccnc(N2CCN(C(F)(F)c3ccc(C(F)F)cc3)C2=O)c1`, the melting point is reported as 173 to 175 °C. Molecule `O=C(c1cncc(Br)c1)N1CCC(c2ccccc2)=N1` has a melting point of 113 to 115 °C. For `COC(=O)c1ccccc1S(=O)(=O)NC(=Nc1nc(C)cc(OC)n1)SC`, the melting point was 143 to 144 °C. In the case of `O=C(NCc1ccc2c(c1)OCO2)c1ccccc1`, the melting point is reported as 115 to 116 °C. For `CCC(C)S(=O)(=O)c1cc(C(F)(F)F)ccc1C(=O)c1cnoc1C1CC1` (stereo not drawn), the melting point was 89 to 91 °C. With `CC1(C)CCC(C)(C)c2cc(C(=O)Nc3ccc(F)cc3)ccc21` the melting point was 163 to 165 °C. Molecule `CCOCc1cc(OC)c(-c2ccc(C[C@H](NC(=O)c3c(F)cccc3F)C(=O)O)cc2)c(OC)c1` has a melting point of 154 to 155 °C. For `CCCCCCCCc1ccc(CCC(NC(C)=O)(C(O)OC(C)=O)C(O)OC(C)=O)cc1` (stereo not drawn), the melting point was 105 to 107 °C. For `CC1(C)OC(c2ccc(S(N)(=O)=O)cc2)=C(c2cccc(C(F)(F)F)c2)C1=O`, the melting point was 129 to 130 °C. `CC(=O)C(O)C1OC(n2cc(Br)c(=O)[nH]c2=O)CC1(O)C(C)=O` (stereo not drawn) gave a melting point of 116 to 120 °C. In the case of `COc1cc2c(cc1-c1ccccc1)c1cc(-c3ccccc3)c(OC)cc1n2CCC(C)CCCC(C)C` (stereo not drawn), the melting point is reported as 119 °C. For `COc1ccc2c(c1)Sc1c(cc(OC)c(O)c1Br)N2C`, the melting point was 154 to 155 °C. `Nc1sccc1C(=O)c1ccc(Cl)cc1` gave a melting point of 178 to 180 °C. Work on `COc1ccc(C(=O)Nc2ccccc2)cc1NS(=O)(=O)c1ccc(F)cc1` yielded a melting point of 209 to 211 °C. With `COc1cc2c(cc1S(C)(=O)=O)nc(C)n2C(C)C` the melting point was 161 to 165 °C. With `COC(=O)c1ccccc1Nc1cccc(C(C)O)c1Cl` (stereo not drawn) the melting point was 94 to 95 °C.
